Reference: US6774220B1, “Compounds having lectinic properties and their biological applications” (Association pour le Développement de la Biothérapie …, priority 1995, dated 2004)
Where two headings read alike, the source gives them in different places. Marks after values point to notes of the source that are not given here.

Assays:
[1] = tested on: TG-180 tumour cells; assay: Antitumour action on grafted TG-180 ascitic tumour; settings: for anti-tumour effect (in words): TG-180 graft in mice
Procedure: In order to test the antitumour capacity of SCL inhibiting sugars, TG-180 tumour cells originating from a tumour resistant to chemical metabolic inhibitors was grafted. In a concentration of 3×10^6 cells injected i.p. into 20 gr Swiss mice, an ascitic tumour is obtained which is detectable in 10 days and kills practically 100% of the animals in 21-25 days.
In parallel series, the various groups of animals were treated 3 days after inoculation, either with a specific sugar (glucosamine, lactose, galacturonate, N.A.N.A., neuramine-lactose) in a 5 to 10% solution, the sugar concentration being 100 mM, or with the same treatment in association with an injection of immuno-stimulant (extract of corynebacterium parvum, Merieux, France), in a dose of 200 g/mouse, or interferon, or both.
4 groups of mice per experiment were used.
They are assessed by the percentage of tumours that appeared on the 10th day, the mean survival time of the animals (MST) in. days, and the final survival (as a percentage).

[2] = tested on: encephalomyocarditis virus (EMC); assay: Protection of IFN against the encephalomyocarditis virus in Swiss mice, with SCL inhibiting sugars; format: in vivo; settings: EMC virus i.p.
Procedure: The model used is the encephalomyocarditis virus (EMC) which kills mice in practically all cases after rather varying but relatively short incubation periods.
Male mice (average weight: […], aged 8 to 10 weeks) were injected i.p. with sodium galacturonate, glucosamine and N-acetylneuraminic acid (5 to 10% solutions containing 100 mM sugar). 24 hours afterwards, one hundred lethal doses (50%) of EMC virus are injected by the same route. After one hour, murine interferon is injected (in a dose of 20,000 units in 0.5 ml). Table 3 gives the number of animals surviving out of the total tested, the percentage and statistical significance.

[3] = tested on: T (lympho) cells; assay: Stimulation over 24 hours of the synthesis of DNA in T (lympho) cells; format: cell-based
Procedure: XI Stimulation over 24 hours of the synthesis of DNA in T (lympho) cells

[4] = tested on: action of interferon (antiviral state against vesicular stomatitis virus) in mouse L cells; format: cell-based
[5] = single agent (+MEM, or IFN in reference group)
[6] = IL2 (100 u) +SCL + inhibitor (NANA 0.75 mmol.; oligo 41-55 3 μγ/ml)

Molecule | Final survival (%) ([1]; +CP) | Final survival, Number ([1]; +CP) | MST (mean survival time) ([1]; +CP) | Tumours on 10th day (%) ([1]; +CP) | Tumours on 10th day, number ([1]; +CP) | Final survival (%) ([1]; +CP +IFN) | Final survival, Number ([1]; +CP +IFN) | MST (mean survival time) ([1]; +CP +IFN) | Tumours on 10th day (%) ([1]; +CP +IFN) | Tumours on 10th day, number ([1]; +CP +IFN) | Final survival (%) ([1]; +IFN) | Final survival, Number ([1]; +IFN) | MST (mean survival time) ([1]; +IFN) | Tumours on 10th day (%) ([1]; +IFN) | Tumours on 10th day, number ([1]; +IFN) | Final survival (%) ([1]; agent alone) | Final survival, Number ([1]; agent alone) | MST (mean survival time) ([1]; agent alone) | Tumours on 10th day (%) ([1]; agent alone) | Tumours on 10th day, number ([1]; agent alone) | other results
CC(C)(N)C(=O)O [alphaaminoiso., alpha aminoisobutyric acid] | (43) % | 13 | 66 ± 13 days | 46% | 14 | (47) % | 14 | 64 ± 13 days | 4d % | 12 | (13) % | 4 | 31 ± 10 days | 50% | 15 | (7) % | 2 | 31 ± 7 days | 20% | 6 | anti-tumour effect (in words) [1]: inhibit oncogenesis significantly
O=C[C@H](O)[C@@H](O)[C@@H](O)[C@H](O)C(=O)[O-].[Na+] [Na galacturonate, sodium galacturonate] | (20) % | 3 | 42 ± 16 days | 13% | 2 | (73) % | 11 | 81 ± 17 days | 6% | 1 | (13) % | 2 | 34 ± 15 days | 40% | 6 | (6) % | 1 | 31 ± 10 days | 20% | 3 | number of animals surviving out of the total number tested [2, 5]: 6/75; percentage surviving [2, 5]: 8%; number of animals surviving out of the total number tested ([2]; sugar +IFN (20,000 units)): 22/90a; percentage surviving ([2]; sugar +IFN (20,000 units)): 24%
CC(=O)N[C@H]1C(O)O[C@H](CO)[C@@H](O)[C@@H]1O (some centres unmarked) [N-acetylglucosamine] | – | – | – | – | – | – | – | – | – | – | – | – | – | – | – | – | – | – | – | – | anti-tumour effect (in words) [1]: comparable anti-tumour effects
oligo 41-55: peptide SEQ ID NO: 5, position 41 to 55 in SEQ ID NO: 1 (GLGASRPRVAVRSAY; listed as Homo sapiens) | – | – | – | – | – | – | – | – | – | – | – | – | – | – | – | – | – | – | – | – | effect on the stimulation of DNA synthesis by SCL (in words) ([3]; 24 hours): inhibited; synthesis of DNA, EXP. N° 1 [3, 6]: 4,674 ± 832.52; synthesis of DNA, EXP. N° 2 [3, 6]: 23,184 ± 2494
N[C@H]1C(O)O[C@H](CO)[C@@H](O)[C@@H]1O (some centres unmarked) [Glucosamine, glucosamine] | (53) % | 40 | 67 ± 8 days | 34% | 26 | (58) % | 35 | 70 ± 9 days | 28% | 17 | (17) % | 8 | 39 ± 9 days | 13% | 6 | (6) % | 1 | 28 ± 6 days | 20% | 3 | Final survival (%) ([1]; +CP, listed as glucosamine): 53%; number of animals surviving out of the total number tested [2, 5]: 1/30; percentage surviving [2, 5]: 3%; number of animals surviving out of the total number tested ([2]; sugar +IFN (20,000 units)): 14/45b; percentage surviving ([2]; sugar +IFN (20,000 units)): 31%
CCC(N)C(=O)O (stereo not drawn) [alphaaminobut., alpha aminobutyric acid] | (23) % | 7 | 55 ± 14 days | 60% | 18 | (47) % | 14 | 62 ± 14 days | 23% | 7 | (0) % | 0 | 25 ± 2 days | 30% | 9 | (0) % | 0 | 26 ± 1 days | 63% | 19 | –
OC[C@H]1O[C@@H](O[C@H]2[C@H](O)[C@@H](O)C(O)O[C@@H]2CO)[C@H](O)[C@@H](O)[C@H]1O (some centres unmarked) [Lactose, lactose] | (46) % | 14 | 82 ± 13 days | 10% | 3 | (64) % | 29 | 75 ± 10 days | 13% | 6 | (13) % | 6 | 64 ± 9 days | 20% | 9 | (3) % | 1 | 26 ± 6 days | 36% | 11 | Final survival (%) ([1]; +CP, listed as lactose): 43%
O=C([O-])C1OC(O)C(O)C(O)C1O.[Na+] (centres unmarked) [Na glucuronate, reference compound] | – | – | – | – | – | – | – | – | – | – | – | – | – | – | – | – | – | – | – | – | anti-tumour effect (in words) [1]: comparable anti-tumour effects; number of animals surviving out of the total number tested [2, 5]: 6/45; percentage surviving [2, 5]: 13%; number of animals surviving out of the total number tested ([2]; sugar +IFN (20,000 units)): 5/45; percentage surviving ([2]; sugar +IFN (20,000 units)): 11%
NCCCC(=O)O [GABA, gamma aminobutyric acid] | (53) % | 24 | 68 ± 11 days | 55% | 25 | (56) % | 17 | 70 ± 13 days | 23% | 7 | (24) % | 11 | 43 ± 10 days | 42% | 19 | (13) % | 4 | 35 ± 9 days | 46% | 14 | anti-tumour effect (in words) [1]: inhibit oncogenesis significantly
recombinant SCL: SCL expressed in mouse L cells transfected with plasmid containing the cloned gene, hexamethasone-inducible promoter (protein) SIHFSSPVFTSRSAAFSGRGAQVRLSSARPGGLGSSSLYGLGASRPRVAVRSAYGGPVGAGIREVTINQSLLAPLRLGADPFSQRVRQEESEQIKTLNNKFASFIDKVRFLEQQNKLLETKWTLLQEQKSAKSSRLPDIFEAQIAGLRGQLEAMQVDGGRLEQGLRTMQDVVEDFKNKYEDEINRRTAAENEFVVLKKDVDAAYMSKVELEAKVDALNDEINFLRTLNETELTELQSQISDTSVVLSMDNSRSLDLDGIIAEVKAQYEEMAKCSRAEAEAWYQTKFETLQAQAGKHGDDLRNTRNEISEMNRAIQRLQAEIDNIKNQRAKLEAAIAEAEERGELALKDARAKQEELEAALQRAKQDMARQLREYQELMSVKLALDIEIATYRKLLEGEESRLAGDGVGAANISVMNSTGGSSSGGGIGLTLGGTMGSNALSFSSSAGPGLLKAYSIRTASASRRSTRD | – | – | – | – | – | – | – | – | – | – | – | – | – | – | – | – | – | – | – | – | limit dilution of SCL at which the action of the interferon was completely blocked ([4]; 200 IU of interferon for 5 hours, then SCL in base 2 dilutions): 1/32; IFN titer ([4]; A: IFN + SCL induced by hexamethasone): <2 U; IFN titer ([4]; A: IFN + SCL non-induced): >5120 U; SCL titer (concentration of SCL which inhibits by 100% the antiviral state) ([4]; B: IFN 200 U + SCL): 32 U. 50%*; effect on antiviral state (in words) ([4]; interferon 5 hours, then SCL 18 hours): blocks the state of the antiviral effect
SCL: SCL excreted in the H-1 medium by PBMC over 24 hours maintained without serum (protein) SIHFSSPVFTSRSAAFSGRGAQVRLSSARPGGLGSSSLYGLGASRPRVAVRSAYGGPVGAGIREVTINQSLLAPLRLGADPFSQRVRQEESEQIKTLNNKFASFIDKVRFLEQQNKLLETKWTLLQEQKSAKSSRLPDIFEAQIAGLRGQLEAMQVDGGRLEQGLRTMQDVVEDFKNKYEDEINRRTAAENEFVVLKKDVDAAYMSKVELEAKVDALNDEINFLRTLNETELTELQSQISDTSVVLSMDNSRSLDLDGIIAEVKAQYEEMAKCSRAEAEAWYQTKFETLQAQAGKHGDDLRNTRNEISEMNRAIQRLQAEIDNIKNQRAKLEAAIAEAEERGELALKDARAKQEELEAALQRAKQDMARQLREYQELMSVKLALDIEIATYRKLLEGEESRLAGDGVGAANISVMNSTGGSSSGGGIGLTLGGTMGSNALSFSSSAGPGLLKAYSIRTASASRRSTRD | – | – | – | – | – | – | – | – | – | – | – | – | – | – | – | – | – | – | – | – | effect on synthesis of DNA (in words) ([3]; 24 hours): stimulates the synthesis of DNA; synthesis of DNA, EXP. N° 1 ([3]; IL2 (100 u) +SCL, 24 hours): 6,167 ± 483.66; synthesis of DNA, EXP. N° 2 ([3]; IL2 (100 u) +SCL, 24 hours): 35,438 ± 10.370
